A short description of test [1]: HEK-293T cell viability reduction – luminescence, B-cell screen hits, cytotoxicity control for BCR NF-kB inhibitor project, dose response (AID 489021).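 Also: HEK-293T cells carrying an NF-kB luciferase reporter; cells exposed to compound for about 14 hours before viability readout.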 Format: functional, cell-based.
The subject of a further test is Jurkat. Briefly: SAR Analysis of small molecule inhibitors of T-cell specific antigen receptor-induced NF-kB activation in a Jurkat cell line using a luminescence assay - Set 2. [Related pubchem assays (depositor defined):AID435003, AID435012, AID465]. Format: functional, cell-based. Particulars: Homo sapiens.
Test [2] concerns HEK293. Briefly: HEK293T cell viability loss, resazurin readout – resazurin fluorescence, cytotoxicity control for NF-kB activator project, SAR follow-up (AID 493251). Format: functional, cell-based. Particulars: Homo sapiens. A general note: Alamar Blue is a resazurin reagent that responds to reducing activity.
The test system of test [3] is HEK293. The experiment in a line: SAR Analysis of small molecule inhibitors of T-cell specific antigen receptor-induced NF-kB activation in a HEK-293T cell line using a luminescence assay - Set 2. [Related pubchem assays (depositor defined):AID435003, AID435012, AID489026]. Format: functional, cell-based. Particulars: Homo sapiens.
Another test deals with DNA topoisomerase (Yersinia pestis, UniProt A0A2S9PM60). The experiment in a line: Yersinia topoisomerase I cleavage product accumulation – biochemical, cherry-pick, dose response (AID 588525).
Test [4] has as its target T1, Fatty acid synthase (Homo sapiens, UniProt P49327). Briefly: inhibition of human FAS-TE enzyme activity – biochemical, endpoint fluorescence intensity, uHTS hits, dose response (AID 624327).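 Also: fluorescence from hydrolysis of an O-methyl fluorescein acyl ester substrate by the enzyme.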 Format: functional.
Test [5] deals with Heat shock protein HSP 90-alpha (Homo sapiens, UniProt P07900). The format is functional, organism-based.
Test [6] in a line: cAMP pathway inhibition in counterscreen cell line – TR-FRET cAMP detection, counter-screen for MC4R biased antagonist project, dose response (AID 602305).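 Also: U2OS cells stimulated with forskolin near its EC80 as the cAMP inducer; potency is for inhibition of forskolin-stimulated cAMP signaling.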 The format is functional, cell-based. Background: A counterscreen serves to expose hits that act by an unwanted route or on another target.
Test [7] can be described thus: viability loss in HeLa cells – cytotoxicity control for MgcRacGAP inhibitor project, dose response (AID 624300). The format is functional.
For test [8], the target named is T2, Type-1 angiotensin II receptor (Homo sapiens, UniProt P30556).
T2 sequence (P30556 whole entry): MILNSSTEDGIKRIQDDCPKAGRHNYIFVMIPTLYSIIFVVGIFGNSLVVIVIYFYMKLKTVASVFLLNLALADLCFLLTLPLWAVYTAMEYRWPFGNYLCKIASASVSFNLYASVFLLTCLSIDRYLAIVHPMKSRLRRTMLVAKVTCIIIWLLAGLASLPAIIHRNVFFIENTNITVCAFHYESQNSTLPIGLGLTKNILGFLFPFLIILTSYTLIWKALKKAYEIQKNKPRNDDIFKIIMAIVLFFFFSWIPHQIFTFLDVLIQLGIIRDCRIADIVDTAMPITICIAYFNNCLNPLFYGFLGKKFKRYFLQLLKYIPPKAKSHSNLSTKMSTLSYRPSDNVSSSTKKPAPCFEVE
Briefly: antagonism of angiotensin II type 1 receptor – cell-based, uHTS hits, selectivity assay for APJ receptor antagonist project, dose response (AID 463214).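 Also: antagonist potency against angiotensin II stimulated AT1 response.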 The format is functional.

The nature of test [9]: HEK-293T viability loss after treatment – luminescence, T-cell screen hits, cytotoxicity control for TCR NF-kB inhibitor project, dose response (AID 489026).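 Also: cells exposed to compound about 14 hours before the viability readout.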 The format is functional, cell-based.
Test [10] concerns the target E3 ubiquitin-protein ligase Mdm2 (Homo sapiens, UniProt Q00987). Briefly: MDM2-luc reporter signal enhancers, multi-concentration potency testing, MDM2 ubiquitin-protein ligase inhibitor program, whole-cell format, luminescence detection, 384-well microplate (AID 1394).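 Also: MDM2 E3 inhibitors raise luminescence so EC50 is for signal enhancement.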 The format is functional.
A short description of test [11]: non-specific 3'UTR reporter inhibition in Clone20-Shn3RL – cell-based, Renilla luciferase, cherry-picked, counter-screen for Shn3 inhibitor project, dose response (AID 624133). The format is functional.
The target of a further test is Melanocortin receptor 4 (Homo sapiens, UniProt P32245). The experiment in a line: inhibitors of MC4R cAMP signaling – cell-based, TR-FRET, biased antagonists, dose response (AID 602298).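 Also: antagonist potency against agonist-stimulated cAMP production.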 The format is functional. Background: Time-resolved FRET reads energy transfer from a long-lived donor to a nearby acceptor.
Test [12] concerns the target T3, Rac GTPase-activating protein 1 (Homo sapiens, UniProt Q9H0H5).
T3 sequence (Q9H0H5 whole entry): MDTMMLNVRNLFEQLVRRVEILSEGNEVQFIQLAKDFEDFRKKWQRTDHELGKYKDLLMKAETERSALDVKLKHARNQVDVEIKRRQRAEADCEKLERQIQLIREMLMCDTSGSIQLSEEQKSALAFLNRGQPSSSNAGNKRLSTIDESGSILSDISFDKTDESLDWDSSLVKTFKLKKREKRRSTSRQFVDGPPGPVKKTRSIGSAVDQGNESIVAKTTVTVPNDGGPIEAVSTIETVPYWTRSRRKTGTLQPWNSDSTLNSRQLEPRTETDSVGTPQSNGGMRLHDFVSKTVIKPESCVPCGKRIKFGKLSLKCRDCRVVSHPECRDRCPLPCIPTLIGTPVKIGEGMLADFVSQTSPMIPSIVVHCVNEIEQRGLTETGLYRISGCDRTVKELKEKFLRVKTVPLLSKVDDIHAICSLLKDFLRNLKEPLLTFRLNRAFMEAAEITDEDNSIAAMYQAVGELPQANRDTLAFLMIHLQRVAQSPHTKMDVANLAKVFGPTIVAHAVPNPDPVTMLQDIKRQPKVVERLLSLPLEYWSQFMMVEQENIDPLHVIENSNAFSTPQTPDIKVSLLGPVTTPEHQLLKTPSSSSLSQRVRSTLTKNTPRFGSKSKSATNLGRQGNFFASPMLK
The experiment in a line: blockers of MgcRacGAP-driven Rac1 GTP hydrolysis – biochemical, ADP Hunter fluorescence, primary and confirmatory, confirmation (AID 624330). The format is functional.

For another test, the target named is Beta-galactosidase (Escherichia coli, UniProt Q8VNN2). The experiment in a line: PubChem AID 485352. Format: functional.
Test [13] addresses T1, Fatty acid synthase. Briefly: inhibition of human FAS-TE enzyme activity – biochemical, kinetic fluorescence intensity, dose response (AID 624326).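 Also: rate of fluorescence rise from hydrolysis of a fluorogenic O-methyl fluorescein ester substrate.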 The format is functional.
The next test has as its system CHO. Briefly: CHO cell viability loss, potency – luminescence, cytotoxicity control for TLR9-MyD88 binding inhibitor project, dose response (AID 588339).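 Also: CHO cells stably coexpressing TLR9 and MyD88 fusions from primary screen; compound exposure lasted 48 hours before viability readout.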 Format: functional, cell-based, hamster. Particulars: Cricetulus griseus.
A further test deals with Beta Lactamase (Pseudomonas aeruginosa, UniProt Q932Y6). The experiment in a line: BLA reporter interference, concentration series – BLA reporter cells, FRET fluorescence, artefact control for TLR9-MyD88 binding inhibitor project, dose response (AID 588341).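 Also: cell based assay in CHO-K1 cells stably expressing beta-lactamase.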 The format is cell-based.
The nature of test [14]: reduction of Shn3 3'UTR-driven luciferase in osteoblasts – cell-based, Clone20 osteoblasts, firefly luciferase, cherry-picked, dose response (AID 624132).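 Also: firefly luciferase luminescence from reporter carrying the Shn3 3'UTR in osteoblasts.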 The format is functional.

These results are taken from ChEMBL document CHEMBL1201862, “PubChem BioAssay data set” (2004).

Molecules are shown by their SMILES. Calls of active or inactive are those of the source.

T1 sequence (P49327 whole entry): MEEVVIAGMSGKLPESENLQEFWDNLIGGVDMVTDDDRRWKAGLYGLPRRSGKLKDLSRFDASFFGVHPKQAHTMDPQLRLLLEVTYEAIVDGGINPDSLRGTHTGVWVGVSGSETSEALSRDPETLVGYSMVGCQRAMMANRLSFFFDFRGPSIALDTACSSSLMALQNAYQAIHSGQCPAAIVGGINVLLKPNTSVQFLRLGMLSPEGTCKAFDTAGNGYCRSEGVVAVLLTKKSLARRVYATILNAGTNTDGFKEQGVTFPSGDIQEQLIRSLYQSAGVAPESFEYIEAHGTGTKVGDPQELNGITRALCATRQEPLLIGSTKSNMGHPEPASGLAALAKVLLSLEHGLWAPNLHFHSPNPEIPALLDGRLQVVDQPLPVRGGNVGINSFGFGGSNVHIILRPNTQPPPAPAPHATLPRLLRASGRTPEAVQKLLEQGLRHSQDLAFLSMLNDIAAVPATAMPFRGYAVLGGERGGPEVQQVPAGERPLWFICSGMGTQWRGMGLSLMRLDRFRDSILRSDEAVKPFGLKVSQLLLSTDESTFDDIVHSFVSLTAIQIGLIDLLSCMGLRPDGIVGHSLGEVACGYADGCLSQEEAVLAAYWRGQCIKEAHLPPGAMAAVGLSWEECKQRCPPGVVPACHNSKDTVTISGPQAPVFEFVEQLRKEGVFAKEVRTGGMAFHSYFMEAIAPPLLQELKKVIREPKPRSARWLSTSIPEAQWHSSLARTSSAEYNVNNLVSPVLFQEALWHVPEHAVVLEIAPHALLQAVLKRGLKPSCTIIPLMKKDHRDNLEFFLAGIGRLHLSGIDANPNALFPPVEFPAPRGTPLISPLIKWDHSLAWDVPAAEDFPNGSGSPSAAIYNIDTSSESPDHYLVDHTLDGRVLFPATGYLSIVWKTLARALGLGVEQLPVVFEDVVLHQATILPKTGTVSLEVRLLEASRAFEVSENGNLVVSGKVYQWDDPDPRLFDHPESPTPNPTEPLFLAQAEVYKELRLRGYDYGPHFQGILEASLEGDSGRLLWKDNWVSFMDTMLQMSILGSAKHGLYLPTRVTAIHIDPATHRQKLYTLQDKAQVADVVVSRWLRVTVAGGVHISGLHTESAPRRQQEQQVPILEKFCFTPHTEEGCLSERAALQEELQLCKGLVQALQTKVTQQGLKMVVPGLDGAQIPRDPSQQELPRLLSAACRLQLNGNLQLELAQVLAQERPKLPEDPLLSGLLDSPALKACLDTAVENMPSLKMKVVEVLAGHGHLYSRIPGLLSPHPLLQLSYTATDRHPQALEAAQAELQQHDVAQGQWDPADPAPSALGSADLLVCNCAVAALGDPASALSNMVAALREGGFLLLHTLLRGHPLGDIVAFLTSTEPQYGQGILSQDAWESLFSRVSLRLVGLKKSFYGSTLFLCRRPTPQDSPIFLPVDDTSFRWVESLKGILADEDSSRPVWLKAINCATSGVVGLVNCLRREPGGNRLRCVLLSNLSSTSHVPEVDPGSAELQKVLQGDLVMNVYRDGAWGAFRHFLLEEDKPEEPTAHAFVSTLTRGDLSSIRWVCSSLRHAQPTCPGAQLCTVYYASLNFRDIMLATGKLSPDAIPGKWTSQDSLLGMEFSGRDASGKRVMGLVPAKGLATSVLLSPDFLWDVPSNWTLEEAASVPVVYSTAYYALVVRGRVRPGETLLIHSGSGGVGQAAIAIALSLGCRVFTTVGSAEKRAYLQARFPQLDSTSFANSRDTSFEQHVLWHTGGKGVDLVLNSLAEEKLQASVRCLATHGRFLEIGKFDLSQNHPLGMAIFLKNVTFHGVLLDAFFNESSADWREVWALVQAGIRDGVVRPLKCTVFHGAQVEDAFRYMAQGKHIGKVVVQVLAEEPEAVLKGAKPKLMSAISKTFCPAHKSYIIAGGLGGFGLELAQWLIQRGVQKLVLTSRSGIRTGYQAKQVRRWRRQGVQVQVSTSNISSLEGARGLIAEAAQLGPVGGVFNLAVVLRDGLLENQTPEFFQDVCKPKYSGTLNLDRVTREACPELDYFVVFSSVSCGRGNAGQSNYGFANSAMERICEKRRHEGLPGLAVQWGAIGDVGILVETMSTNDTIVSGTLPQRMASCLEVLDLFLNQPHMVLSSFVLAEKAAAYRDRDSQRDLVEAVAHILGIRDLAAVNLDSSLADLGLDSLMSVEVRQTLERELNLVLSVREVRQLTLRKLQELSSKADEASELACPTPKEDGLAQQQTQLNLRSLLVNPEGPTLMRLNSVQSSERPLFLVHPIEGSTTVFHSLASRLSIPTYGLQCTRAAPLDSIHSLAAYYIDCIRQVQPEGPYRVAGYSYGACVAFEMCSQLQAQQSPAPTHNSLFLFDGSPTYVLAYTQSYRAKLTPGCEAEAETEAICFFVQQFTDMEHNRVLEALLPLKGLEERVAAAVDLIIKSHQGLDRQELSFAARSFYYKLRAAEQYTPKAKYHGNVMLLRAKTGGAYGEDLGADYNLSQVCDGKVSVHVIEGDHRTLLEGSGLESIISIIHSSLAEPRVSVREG
Chain of Melanocortin receptor 4 (P32245 whole entry): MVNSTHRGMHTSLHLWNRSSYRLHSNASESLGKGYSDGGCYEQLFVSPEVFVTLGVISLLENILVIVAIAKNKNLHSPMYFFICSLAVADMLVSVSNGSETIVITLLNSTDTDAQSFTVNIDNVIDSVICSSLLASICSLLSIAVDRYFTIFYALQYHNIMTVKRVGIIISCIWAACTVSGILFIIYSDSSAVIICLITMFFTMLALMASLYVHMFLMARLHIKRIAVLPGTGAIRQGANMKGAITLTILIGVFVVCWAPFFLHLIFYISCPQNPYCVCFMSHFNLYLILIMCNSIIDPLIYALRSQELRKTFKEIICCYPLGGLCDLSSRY
Chain of E3 ubiquitin-protein ligase Mdm2 (Q00987 whole entry): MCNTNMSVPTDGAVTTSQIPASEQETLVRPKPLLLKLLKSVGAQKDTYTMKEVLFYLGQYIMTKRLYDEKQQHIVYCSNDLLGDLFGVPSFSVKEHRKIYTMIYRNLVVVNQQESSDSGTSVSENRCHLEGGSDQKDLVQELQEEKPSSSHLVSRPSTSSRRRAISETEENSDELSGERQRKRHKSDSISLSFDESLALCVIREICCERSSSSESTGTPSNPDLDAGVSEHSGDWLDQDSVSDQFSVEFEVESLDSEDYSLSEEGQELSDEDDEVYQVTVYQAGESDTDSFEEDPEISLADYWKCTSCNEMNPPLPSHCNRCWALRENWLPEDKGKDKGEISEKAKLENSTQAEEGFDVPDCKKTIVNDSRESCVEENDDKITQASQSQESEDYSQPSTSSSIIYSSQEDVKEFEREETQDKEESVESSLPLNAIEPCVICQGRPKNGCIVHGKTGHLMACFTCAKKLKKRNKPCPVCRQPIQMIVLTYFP
Chain of DNA topoisomerase (A0A2S9PM60 whole entry): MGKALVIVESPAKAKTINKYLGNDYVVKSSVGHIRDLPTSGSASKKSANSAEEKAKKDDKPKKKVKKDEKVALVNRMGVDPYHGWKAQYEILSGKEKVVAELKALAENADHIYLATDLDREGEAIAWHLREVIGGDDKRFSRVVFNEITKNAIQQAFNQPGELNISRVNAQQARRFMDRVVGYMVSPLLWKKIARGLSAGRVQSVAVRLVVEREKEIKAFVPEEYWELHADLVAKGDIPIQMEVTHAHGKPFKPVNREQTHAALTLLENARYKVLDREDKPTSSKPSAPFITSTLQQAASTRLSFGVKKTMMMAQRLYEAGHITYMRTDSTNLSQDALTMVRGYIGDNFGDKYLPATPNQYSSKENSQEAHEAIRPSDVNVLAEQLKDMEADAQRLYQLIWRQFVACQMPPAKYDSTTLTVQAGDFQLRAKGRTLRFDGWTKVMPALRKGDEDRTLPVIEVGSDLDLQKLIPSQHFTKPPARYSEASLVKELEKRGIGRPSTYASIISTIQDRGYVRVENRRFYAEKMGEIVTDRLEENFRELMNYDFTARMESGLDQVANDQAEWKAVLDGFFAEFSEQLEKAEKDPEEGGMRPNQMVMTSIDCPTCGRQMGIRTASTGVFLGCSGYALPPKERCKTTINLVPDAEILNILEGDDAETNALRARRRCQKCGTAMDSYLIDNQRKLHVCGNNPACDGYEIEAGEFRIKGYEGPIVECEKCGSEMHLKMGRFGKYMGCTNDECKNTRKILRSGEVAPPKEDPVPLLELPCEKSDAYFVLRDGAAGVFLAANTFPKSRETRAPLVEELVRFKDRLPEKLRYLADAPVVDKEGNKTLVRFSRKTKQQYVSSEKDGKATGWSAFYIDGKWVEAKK
Chain of Beta Lactamase (Q932Y6 whole entry): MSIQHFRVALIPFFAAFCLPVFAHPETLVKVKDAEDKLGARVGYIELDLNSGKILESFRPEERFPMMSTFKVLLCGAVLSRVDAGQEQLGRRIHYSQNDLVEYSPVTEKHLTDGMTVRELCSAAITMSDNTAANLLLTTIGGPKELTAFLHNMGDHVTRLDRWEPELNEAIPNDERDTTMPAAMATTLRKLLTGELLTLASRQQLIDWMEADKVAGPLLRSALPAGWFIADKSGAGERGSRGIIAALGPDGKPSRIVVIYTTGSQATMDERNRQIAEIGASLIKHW

`O=C(Nc1nc2c(Br)cc(Br)cc2c(=O)s1)c1ccco1`: the IC50 – broadly, the concentration at which inhibition is half-maximal – is > 80 µM (inactive) in test [1], 6.7 µM (active) with Jurkat, > 80 µM (inactive) in the test on HEK293 [2] and > 80 µM (inactive) with HEK293 [3].

On to `CC(C)CC1NC(=O)c2cc3ccccc3cc2-n2c1nc1cc(Cl)ccc1c2=O` (stereo not given), for which the AC50 (usually the midpoint of the concentration-response curve, whichever way the signal moves) on DNA topoisomerase was 10.2 µM (active).

For `COc1ccc(NC(=O)/C(Cl)=C(/Cl)[S+]([O-])Cc2ccc(Cl)cc2)cn1` (stereo not given), the IC50 at Fatty acid synthase [4] was 5.57 µM (active); in [6], > 64.6 µM (inactive); in test [8] it was 2.35 µM (active); in [9], 41.7 µM (inactive); on Melanocortin receptor 4 it was 9.97 µM (active); in [12] it was 16.9 µM (active). Further, the figures for the IC50 at Fatty acid synthase [13], with CHO and at Beta Lactamase were 2.83 µM (active), 463 nM (active) and 7.83 µM (active), respectively. Besides, the AC50 was 885 nM (active) in [5], 3.48 µM (active) in [11] and 1.34 µM (active) in [14]. Moreover, the CC50 (commonly the concentration giving 50% cytotoxicity) in test [7] was 100 µM (active). Further, the EC50 (in general, the concentration giving half of the maximal effect) in test [10] is 620 nM (active); at Beta-galactosidase, > 40 µM (inactive).
